Laboratory results from patent publication US20240197716A1, “TREATMENTS FOR CUSHING'S SYNDROME THAT DO NOT SIGNIFICANTLY AFFECT CARDIAC RHYTHMS” (Corcept Therapeutics Incorporated, priority 2022, published 2024).
Values belong to the molecule of their own block, whether it stands above or below them. Starred links: 1 amine or outer side, 2 acyl side, 3 side chain; linkers in the order of their positions; H or OH if unused. Non-standard residues stand in square brackets, D forms with d. Residues, ends and D or L forms follow the SMILES beside them. Groups on a side chain read outwards from the residue. *: point of attachment. Ethylenediamine = C(CN[*:2])N[*:1]; Hyp = O=C(O)[C@@H]1C[C@@H](O)CN1; Phg = N[C@H](C(=O)O)c1ccccc1; CO = O=C([*:1])[*:2]; Bn = c1ccc(C*)cc1

Tests used:
QT interval = conditions: in vivo; cited from earlier work
[1] = Plasma concentrations in TQT study (LC-MS/MS, non-compartmental PK); assay type: in vivo, human; conditions: human, plasma, oral; 400 mg single dose; read-out: Geometric Mean Cmax
Description: PK analyses were performed using non-compartmental methods to obtain estimates of the following parameters, where possible: […] Day 1: Cmax, Tmax, AUClast, and AUC0-24; Day 5: Cmax, Tmax, Cmin, AUClast, AUC0-tau, Cavg, FI, and AR. For moxifloxacin: Cmax, Tmax, AUClast, and AUC0-24. […] PK blood sampling for Day 1 was completed prior to dosing on Day 2.

[2] = tested on: cardiac repolarization in healthy volunteers; experiment: Thorough QT/QTc (TQT) study (NCT04795479), cardiodynamic Holter ECG
Excerpt: These studies included a randomized, partial double-blind, placebo- and positive-controlled, multiple-dose, 4-way crossover, thorough QT/QTc (TQT) study to investigate the effect of relacorilant on cardiac repolarization. These studies measured placebo-corrected change-from-baseline QTcF (ΔΔQTcF); change-from-baseline of QTcF, HR, and PR and QRS intervals (ΔQTcF, ΔHR, ΔPR, and ΔQRS); placebo-corrected change-from-baseline of HR, and PR and QRS intervals (ΔΔHR, ΔΔPR, and ΔΔQRS); categorical outliers for QTcF, HR, and PR and QRS intervals; the frequency of treatment-emergent changes of T-wave morphology and presence of U-waves; PK parameters of relacorilant and its metabolites (CORT125337, CORT125336, and CORT125295) and moxifloxacin; safety profiles, including AEs/SAEs, physical examination, clinical chemistry, hematology, urinalysis, ECG, and vital signs.
A phase 1, randomized, partial double-blind, crossover thorough QT study (NCT04795479) to assess the effect of multiple doses of relacorilant on cardiac repolarization in healthy volunteers. Participants were randomized to dosing sequences to receive relacorilant at therapeutic (400 mg QD, n=25) or supra-therapeutic (800 mg QD, n=28) doses, or placebo (n=29) for 5 days. Moxifloxacin (400 mg single dose, n=28) was used as a positive control.
Each subject received 4 treatments in a randomized sequence during the study period. Each dosing consisted of 8 capsules (except for moxifloxacin on Day 5), including: • Treatment T: Multiple oral doses of 400 mg relacorilant (4 capsules)+placebo for relacorilant (4 capsules) once daily for 5 days; • Treatment ST: Multiple oral doses of 800 mg relacorilant (8 capsules) once daily for 5 days; • Treatment P: Multiple oral doses of placebo for relacorilant (8 capsules) once daily for 5 days; • Treatment M: Multiple oral doses of placebo for relacorilant (8 capsules) once daily for 4 days and a final single oral dose of 400 mg moxifloxacin (one tablet) on Day 5.
In a portion of present study conducted in healthy subjects, a single dose of moxifloxacin (400 mg; Treatment M) on the last day of its respective treatment period was included as a positive control to determine the sensitivity of the study to detect small QTc changes. Relacorilant doses included both a therapeutic dose level (400 mg; Treatment T) and a supra-therapeutic dose level (800 mg; Treatment ST). The study was blinded to subjects, investigator, study staff, and sponsor with respect to relacorilant (Treatments T and ST) and placebo for relacorilant (Treatment P); it was open-labeled for moxifloxacin (Treatment M). Enrolled subjects were randomized to one of twelve (12) dosing sequences to receive 4 different treatments according to the assigned dosing sequence as shown below:
In each period, subjects were admitted to the clinical site in the morning of Day-1 and stayed in the site until the morning of Day 6. In the study periods when subjects were randomized to Treatment T, ST, or P, the applicable study product (400 mg or 800 mg relacorilant or placebo for relacorilant) were taken once daily in the morning for 5 consecutive days. During the dosing period of positive control (Treatment M), placebo for relacorilant were administered on Days 1 to 4 to align with the dosing schedule for the other three treatments and moxifloxacin were administered in an open-labeled manner as a single dose in the morning of Day 5. Therefore, the treatment on Days 1 to 4 were double-blinded; it was not known before the morning on Day 5 whether or not a subject was allocated to receive moxifloxacin. Each dosing period (from Periods 2 to 4) was separated from the previous period by a washout period of at least 10 days from Day 6 of the previous period to Day 1 (first dose) of the subsequent period to prevent a carryover effect. The final visit was on Day 6 of Period 4. A safety phone follow-up was scheduled at 7 days (±2 days) post the final visit/early termination (ET) visit.

Structure (SMILES): CC(=O)N1CCN(c2ccc(OC[C@@H]3CO[C@@](Cn4ccnc4)(c4ccc(Cl)cc4Cl)O3)cc2)CC1 [levoketoconazole]
effect on QT interval (literature) (QT interval): associated with QT interval prolongation

Cmax [1]: 1870 ng/mL
Structure (SMILES): COc1c(N2C[C@@H]3CCCN[C@@H]3C2)c(F)cc2c(=O)c(C(=O)O)cn(C3CC3)c12 [moxifloxacin, 1-cyclopropyl-7-[(S,S)-2,8-diazabicyclo[4.3.0]non-8-yl]-6-fluoro-8-methoxy-1,4-dihydro-4-oxo-3 quinoline carboxylic acid, reference compound]
effect on QT interval (literature) (QT interval): prolong the QT interval of the electrocardiogram in some patients
LS mean (90% CI) ΔΔQTcF, peak value ([2]; 400 mg on day 5, 1.5 hours post-dose): 10.7 (7.3, 14.1) msec
QT effect of positive control ([2]; 400 mg single dose): expected QT prolongation
LS mean (90% CI) ΔQTcF ([2]; 400 mg single dose on day 5, 1 hour post-dose): 5.7 (3.3, 8.2) msec
LS mean (90% CI) ΔQTcF, maximum observed value ([2]; 400 mg single dose on day 5, 16 hours post-dose): 9.7 (7.2, 12.2) msec
ΔΔQTcF Estimate (msec) (90% CI), predicted at geometric mean Cmax ([2]; 400 mg single dose, PK/QTc population): 8.90 (5.96, 11.85)^2 msec
lower bound of the 90% CI around the LS mean ΔΔQTcF ([2]; 400 mg, at 4 of the 12 post-dose time points): exceeded 5 msec

Structure (SMILES): N#Cc1ccc([C@H]2CCc3cncn32)c(F)c1 [osilodrostat]
effect on QT interval (literature) (QT interval): associated with QT interval prolongation

Structure (SMILES): NCCCC[C@@H]1NC(=O)[C@@H](Cc2c[nH]c3ccccc23)NC(=O)[C@H](c2ccccc2)NC(=O)[C@@H]2C[C@@H](OC(=O)NCCN)CN2C(=O)[C@H](Cc2ccccc2)NC(=O)[C@H](Cc2ccc(OCc3ccccc3)cc2)NC1=O [pasoreotide] (cyclo([Hyp]([CO-Ethylenediamine])[Phg][dW]KY(Bn)F))
effect on QT interval (literature) (QT interval): associated with QT interval prolongation
